Data taken from BigSolDB 2.1.

C[N+](C)(C)C[C@H](O)CC(=O)[O-]
solubility (mole fraction)
Settings | in acetone | in ethanol | in isopropanol | in methanol
278.15 K | 7.1e-05 | 0.0392 | 0.00146 | 0.0962
283.15 K | 8.1e-05 | 0.0408 | 0.00181 | 0.0982
288.15 K | 9.1e-05 | 0.0431 | 0.00223 | 0.104
293.15 K | 0.000106 | 0.0452 | 0.00271 | 0.111
298.15 K | 0.000117 | 0.0483 | 0.0034 | 0.119
303.15 K | 0.000131 | 0.0517 | 0.00417 | 0.127
308.15 K | 0.000143 | 0.0546 | 0.00527 | 0.136
313.15 K | 0.000157 | 0.0576 | 0.0063 | 0.144
318.15 K | 0.000175 | 0.0607 | 0.00778 | 0.154
323.15 K | 0.000195 | 0.0648 | 0.00983 | 0.165
328.15 K | 0.00022 | 0.0698 | 0.0118 | 0.178
333.15 K | – | 0.0747 | 0.0144 | 0.189
338.15 K | – | 0.0801 | – | –
343.15 K | – | 0.0855 | – | –
348.15 K | – | 0.0919 | – | –
